In PubChem BioAssay (NCI) one finds GI50 and TGI data, which are given here for 9 molecules.

Test systems include CAKI-1 renal; HOP-92 NSCLC; A549 NSCLC; NCI-H23 lung; OVCAR-5 ovarian; SK-MEL-5 melanoma; TK-10 renal; SN12C renal; A498 renal; UACC-62 melanoma.
Holding throughout (test): growth of human tumour cells (NCI), 48 h

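Grown in 96-well plates, cells were treated for 48 hours with each compound at five concentrations. Insufficient inhibition: endpoint recorded as highest concentration tested. GI50: concentration for 50% inhibition of growth. TGI denotes the concentration required for complete inhibition of growth.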

For `C[C@]12CC[C@@H]3c4ccc(O)cc4C(O)C[C@H]3[C@@H]1CCC2=O` (stereo not given in full), the GI50 is above 100 µM in the assay on CAKI-1 renal; 53.8 µM with HOP-92 NSCLC; above 100 µM with A549 NSCLC; above 100 µM with NCI-H23 lung; above 100 µM with OVCAR-5 ovarian; above 100 µM with SK-MEL-5 melanoma. Further, the GI50 is above 100 µM in the assay on TK-10 renal, above 100 µM in the assay on SN12C renal, 76.2 µM in the assay on A498 renal and above 100 µM with UACC-62 melanoma. For the same molecule, the TGI in the assay on CAKI-1 renal, in the assay with HOP-92 NSCLC, with A549 NSCLC, in the assay on NCI-H23 lung, with OVCAR-5 ovarian and in the assay on SK-MEL-5 melanoma was above 100 µM throughout. Also, the TGI with TK-10 renal, with SN12C renal, in the assay with A498 renal and with UACC-62 melanoma was above 100 µM in each case.

On to `O=C1NC2(CN3CCC2CC3)C(=O)N1CN(Cc1ccccc1)c1ccccc1` (stereo not given), for which the TGI in the assay on CAKI-1 renal, with HOP-92 NSCLC, in the assay with A549 NSCLC, in the assay on NCI-H23 lung, in the assay with OVCAR-5 ovarian and with SK-MEL-5 melanoma was above 100 µM in each case. The TGI in the assay with TK-10 renal, in the assay with SN12C renal, in the assay on A498 renal and in the assay on UACC-62 melanoma was above 100 µM each time.

As to `Cc1cc(N/N=C/c2nc(-c3ccc(Cl)cc3)oc2C)c2cc(Cl)ccc2n1`, the GI50 is 2 µM in the assay on CAKI-1 renal; 3.53 µM with HOP-92 NSCLC; 1.76 µM in the assay on A549 NSCLC; 5.34 µM in the assay on NCI-H23 lung; 8.08 µM with OVCAR-5 ovarian; 8.64 µM with SK-MEL-5 melanoma. Besides, the GI50 in the assay with TK-10 renal was 1.85 µM; in the assay on SN12C renal it was 1.94 µM; in the assay on A498 renal it was 11.7 µM; in the assay on UACC-62 melanoma, 1.8 µM. The TGI in the assay on CAKI-1 renal was 4.33 µM; with HOP-92 NSCLC, 16.6 µM; in the assay with A549 NSCLC it was 3.6 µM; in the assay on NCI-H23 lung, 19.1 µM; in the assay on OVCAR-5 ovarian, 20.6 µM; in the assay on SK-MEL-5 melanoma, 20.8 µM. Further, the TGI in the assay on TK-10 renal stood at 3.48 µM; in the assay with SN12C renal it was 4.16 µM; in the assay with A498 renal, 25.1 µM; in the assay on UACC-62 melanoma, 3.54 µM.

In the case of `CCOc1c(Cl)cc(CNC(C)C(O)c2ccccc2)cc1OC` (stereo not given), the GI50 was 15.1 µM in the assay with CAKI-1 renal; 12.9 µM with HOP-92 NSCLC; 43.9 µM with A549 NSCLC; 31.3 µM in the assay on NCI-H23 lung; 24.3 µM with OVCAR-5 ovarian; 16.6 µM in the assay on SK-MEL-5 melanoma. Moreover, the GI50 was 31.7 µM with TK-10 renal, 38.7 µM with SN12C renal, 0.244 µM in the assay with A498 renal and 17.9 µM in the assay on UACC-62 melanoma. The TGI was 54.7 µM in the assay with CAKI-1 renal; 48.5 µM in the assay with HOP-92 NSCLC; above 100 µM with A549 NSCLC; above 100 µM in the assay on NCI-H23 lung; 96.4 µM in the assay with OVCAR-5 ovarian; 30.6 µM in the assay with SK-MEL-5 melanoma. For the same molecule, the TGI in the assay with TK-10 renal was above 100 µM; in the assay on SN12C renal, above 100 µM; in the assay on A498 renal, 26.4 µM; in the assay on UACC-62 melanoma, 38.9 µM.

For `Cc1c2ccc(N(C)c3ccnc(Nc4cccc(S(N)(=O)=O)c4)n3)cc2nn1C`, the GI50 in the assay on CAKI-1 renal is 7.73 µM; in the assay with HOP-92 NSCLC, 5.41 µM; in the assay on A549 NSCLC it was 11.9 µM; in the assay on NCI-H23 lung, 7.49 µM; in the assay on OVCAR-5 ovarian, 11.4 µM; in the assay with SK-MEL-5 melanoma, 6.01 µM. Besides, the GI50 with TK-10 renal is 10.5 µM; with SN12C renal it was 8.75 µM; in the assay with A498 renal, 1.89 µM; in the assay on UACC-62 melanoma, 8.38 µM. Further, the TGI was 24.7 µM in the assay on CAKI-1 renal; 17.9 µM in the assay on HOP-92 NSCLC; above 25 µM in the assay with A549 NSCLC; above 25 µM with NCI-H23 lung; above 25 µM in the assay on OVCAR-5 ovarian; above 17.1 µM in the assay with SK-MEL-5 melanoma. The TGI is above 25 µM in the assay with TK-10 renal, above 25 µM with SN12C renal, above 17.9 µM in the assay on A498 renal and above 25 µM in the assay on UACC-62 melanoma.

On to `COc1cc(Cn2c(-c3nonc3N)nc3ccccc32)ccc1C`, for which the GI50 in the assay with CAKI-1 renal is 0.477 µM; in the assay on HOP-92 NSCLC, 0.566 µM; with A549 NSCLC, 0.625 µM; with NCI-H23 lung it was 1.02 µM; with OVCAR-5 ovarian, 1.59 µM; with SK-MEL-5 melanoma, 0.354 µM. Besides, the GI50 with TK-10 renal was 1.09 µM; in the assay on SN12C renal it was 3.69 µM; in the assay with A498 renal it was 0.142 µM; in the assay with UACC-62 melanoma it was 0.848 µM. The TGI in the assay on CAKI-1 renal is above 100 µM; in the assay with HOP-92 NSCLC it was 30 µM; in the assay with A549 NSCLC, above 100 µM; in the assay with NCI-H23 lung, above 55.6 µM; in the assay with OVCAR-5 ovarian, 43.5 µM; in the assay on SK-MEL-5 melanoma, 19.8 µM. Besides, the TGI in the assay on TK-10 renal is 30 µM; with SN12C renal, above 100 µM; with A498 renal, 1.66 µM; with UACC-62 melanoma it was above 100 µM.

As for `c1nnc(NCNc2nncs2)s1`, the TGI in the assay on CAKI-1 renal, in the assay on HOP-92 NSCLC, in the assay with A549 NSCLC, in the assay with NCI-H23 lung, in the assay on OVCAR-5 ovarian and in the assay on SK-MEL-5 melanoma was above 100 µM each time. In addition, the TGI with TK-10 renal, in the assay with SN12C renal, in the assay with A498 renal and in the assay on UACC-62 melanoma was above 100 µM in each case.

`OCC1OC(n2cnc3c(/C=C(/O)c4ccccc4)ncnc32)C(O)C1O` (stereo not given): the TGI in the assay on CAKI-1 renal was above 100 µM; with HOP-92 NSCLC, above 100 µM; in the assay with A549 NSCLC it was above 100 µM; with NCI-H23 lung, above 100 µM; with OVCAR-5 ovarian, above 100 µM; with SK-MEL-5 melanoma it was 79.7 µM. Further, the TGI in the assay on TK-10 renal was 13.5 µM; with SN12C renal it was above 100 µM; in the assay with A498 renal, above 91.1 µM; in the assay with UACC-62 melanoma, above 100 µM.

`CNC(=S)N/N=C/c1ccc([N+](=O)[O-])s1`: the TGI with CAKI-1 renal, in the assay with HOP-92 NSCLC, with A549 NSCLC, with NCI-H23 lung, in the assay with OVCAR-5 ovarian and with SK-MEL-5 melanoma was above 10 µM throughout. Also, the TGI in the assay on TK-10 renal, with SN12C renal, in the assay with A498 renal and in the assay on UACC-62 melanoma was above 10 µM in each case.
